How the values were obtained:
IkBa and p65 = experiment: Western blot / immunocytochemistry of TNF-induced IkBa and p65 events; assay type: cell-based, human
Experimental: Honokiol inhibits TNF-induced activation of NF-kB. H1299 cells were incubated with […] honokiol for 12 h, treated with 0.1 nM TNF for the indicated times, and then analyzed for NF-kB activation by EMSA. (B) H1299 cells (2×10^6/ml) were incubated with […] honokiol for 12 h at 37° C., treated with 0.1 nM TNF for the indicated times at 37° C., and then tested for IkBa (upper panel) in cytosolic fractions by Western blot analysis. Equal protein loading was evaluated by b-actin (lower panel). (C) Honokiol blocks the phosphorylation and ubiquitination (D) of IkBaby TNF. Cells were preincubated with […] honokiol for 12 h, incubated with […]/ml N-acetyl-leucyl-leucyl-norleucinal (ALLN) for 30 min, and then treated with 0.1 nM TNF for 10 min. Cytoplasmic extracts were fractionated and then subjected to Western blot analysis using phospho-specific anti-IkBa antibody. The same membrane was reblotted with anti-IkBa antibody. (E) Honokiol inhibits TNF-induced IkBakinase activity. H1299 cells (2×10^6/ml) were treated with […] honokiol for 12 h and then treated with 0.1 nM TNF for the indicated time intervals. Whole-cell extracts were prepared, and 200 mg of extract was immunoprecipitated with antibodies against IKKa and IKKb. The immune complex kinase assay was then performed as described in Materials and Methods. To examine the effect of honokiol on the level of expression of IKK proteins, 30 mg of whole-cell extract was analyzed on 10% SDS-PAGE, electrotransferred, and immunoblotted with the indicated antibodies as described in Materials and Methods. (F) Honokiol inhibits TNF-induced nuclear translocation of p65. H1299 cells (2×10^6/ml) were either untreated or pretreated with […] honokiol for 12 h at 37° C. and then treated with 0.1 nM TNF for the indicated times. Nuclear extracts were prepared and analyzed by Western blotting using antibodies against p65. (G) honokiol inhibits TNF-induced nuclear translocation of p65. H1299 cells (1×10^6/ml) were first treated with […] honokiol for 12 h at 37° C. and then exposed to 0.1 nM TNF. After cytospin, immunocytochemical analysis was performed as described in Materials and Methods. […] (H) Honokiol inhibits TNF-induced phosphorylation of p65. H1299 cells (2×10^6/ml) were incubated with 25 mM honokiol for 12 h and then treated with 0.1 nM TNF for the indicated times. The cytoplasmic and nuclear extracts were analyzed by Western blotting using antibodies against the phosphorylated form of p65.
(§1) Western blot analysis. […] Cytoplasmic protein […] was resolved on 10% SDS-PAGE gel, transferred to a nitrocellulose membrane, blocked with 5% non-fat milk, and probed with specific antibodies against IkBa, posphorylated IkBa, p65, and phosphorylated p65. To determine the expression of cyclin D1, COX-2, MMP-9, cIAP-1, TRAF1, Bcl-2, Bfl-1, cFLIP, and survivin in whole-cell extracts of treated cells (2×10^6 cells in 2 ml of medium), […] of protein was resolved on SDS-PAGE and probed by Western blot with specific antibodies as per the manufacturer's recommended protocol. The blots were washed, exposed to HRP-conjugated secondary antibodies for 1 h, and finally detected by ECL reagent (Amersham Pharmacia Biotechnology, Piscataway, N.J.). The bands were quantified using a Personal Densitometer Scan v1.30 using Imagequant software version 3.3 (Molecular Dynamics).
Immunolocalization of NF-kB p65. […]

[1] = tested on: phospholipase D in SVR cells; experiment: phospholipase D activity; assay type: cell-based; details: 0.5% and 10% serum
Description: Honokiol analogs can stimulate tumor and endothelial cell apoptosis through inhibition of PLD activity. […] Treatment with […] causes downregulation of S6kinase phosphorylation in a time and dose dependent fashion, as well as downregulation of akt. Thus, honokiol mimics several of the activities of wild type tuberin.

HUVEC = experiment: In Vitro Angiogenesis Assay (tube formation); assay type: cell-based, human; details: 8 ug/ml, 6 h
[2] = tested on: NF-kB-regulated gene products in H1299 cells; experiment: Western blot of TNF-induced NF-kB-regulated gene products; assay type: cell-based, human
Experimental: (A) Honokiol inhibits COX-2, MMP-9, ICAM-1, and VEGF expression induced by TNF. H1299 cells (2×10^6/ml) were left untreated or incubated with […] honokiol for 12 h and then treated with 0.1 nM TNF for different times. Whole-cell extracts were prepared, and […] of the whole-cell lysate was analyzed by Western blotting using antibodies against VEGF, MMP-9, and COX-2. (B) Honokiol inhibits cyclin D1 and c-myc expression induced by TNF. H1299 cells (2×10^6/ml) were left untreated or incubated with […] honokiol for 12 h and then treated with 0.1 nM TNF for different times. Whole-cell extracts were prepared, and […] of the whole-cell lysate was analyzed by Western blotting using antibodies against cyclin D1 and c-myc. […] (C) Honokiol inhibits the expression of anti-apoptotic gene products cIAP1, cIAP2 Bcl-x1, Bcl-2, cFLIP, TRAF2, and survivin. H1299 cells (2×10^6/ml) were left untreated or incubated with […] honokiol for 12 h and then treated with 0.1 nM TNF for different times. Whole-cell extracts were prepared, and […] of the whole-cell lysate was analyzed by Western blotting using antibodies against IAP1, IAP2, bcl-x1, bcl-2, cFLIP, and survivin as indicated.
as §1, with “Dynamics). […]” for “Dynamics).”

For `C=CCc1ccc(O)c(-c2ccc(O)c(CC=C)c2)c1` [HNK, Honokiol], the “TNF-induced phosphorylation of p65” value (IkBa and p65) was “suppressed p65 phosphorylation almost completely”, the “TNF-dependent IkBa degradation” value (IkBa and p65; 25 mM (printed) honokiol 12 h, 0.1 nM TNF) was “TNF had no effect on IkBa degradation” and the “TNF-induced nuclear translocation of p65” value (IkBa and p65; Western blot analysis) was “suppressed nuclear translocation of the p65 subunit of NF-kB”. For the same molecule, the “TNF-induced IkBa phosphorylation” value (IkBa and p65; with ALLN, 0.1 nM TNF 10 min) was “completely suppressed it”, the “TNF-induced IkBa ubiquitination” value (IkBa and p65; with ALLN, 0.1 nM TNF 10 min) was “completely suppressed it” and the “activity of phospholipase D” value [1] was “inhibits the activity of phospholipase D in both 0.5% and 10% serum”. The “tube formation by endothelial cells” value (HUVEC) was “significantly inhibited the tube formation”, the “TNF-induced expression of VEGF, COX-2, ICAM-1 and MMP-9” value ([2]; H1299) was “abolished the expression” and the “TNF-induced expression of cyclin D1 and c-myc” value ([2]; H1299) was “abolished, in a time-dependent fashion, the TNF-induced expression of cyclin D1 and c-myc”. For the same molecule, the “TNF-induced expression of anti-apoptotic gene products” value ([2]; cIAP1, cIAP-2, BCl-2, Bcl-xL, cFLIP, TRAF1, and survivin) was “inhibited the TNF-induced expression of all of these proteins”.

From patent US20080300298A1, “Honokiol Derivates For the Treatment of Proliferative Disorders” (priority 2005, published 2008)
